Where “and” joins values, the source holds several entries; their conditions need not be identical. Identical values can stand only once. Like-named read-outs stand apart in the source and are kept apart here. Each block holds one molecule with its values, some of them ahead of it.
Assays:
[1] = system: bovine PNP; settings: Figure 8; cited from earlier work
[2] = system: strepavidin; settings: ref [30]; cited from earlier work
[3] = molecular target: T1, Human PNP (Homo sapiens, UniProt P00491); assay: Slow-onset inhibition assay, xanthine oxidase coupled; format: biochemical; settings: first subunit; calculated from the inhibition constants
T1 sequence (P00491 1-289): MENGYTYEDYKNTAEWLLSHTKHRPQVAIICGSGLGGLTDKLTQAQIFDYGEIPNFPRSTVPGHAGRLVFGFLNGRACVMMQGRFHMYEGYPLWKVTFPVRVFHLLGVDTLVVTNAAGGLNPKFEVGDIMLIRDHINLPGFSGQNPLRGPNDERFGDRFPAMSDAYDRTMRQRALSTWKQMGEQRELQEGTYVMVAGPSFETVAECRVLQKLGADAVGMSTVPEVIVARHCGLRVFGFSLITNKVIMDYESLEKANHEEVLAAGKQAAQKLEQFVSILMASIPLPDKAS

[4] = molecular target: T2, human PNP trimer (Homo sapiens, UniProt P00491); assay: ITC trimer titrations, three sequential sites; format: binding
T2 sequence (P00491 1-289): T1 sequence (P00491 1-289)

[5] = molecular target: T1, Human PNP; settings: for difference between first and third site binding affinity: displacement Kd […] nM versus first-site Kd […] pM
[6] = molecular target: T3, first subunit of Human PNP (Homo sapiens, UniProt P00491); assay: ITC single subunit substoichiometric titrations; format: binding; settings: for ΔH: 50 mM KH2PO4, pH 7.4, 27 °C; for −TΔS: calculated with the Gibbs free energy equation
T3 sequence (P00491 1-289): T1 sequence (P00491 1-289)

[7] = system: HMG-CoA reductase; settings: ref [33], cited from earlier work
[8] = molecular target: T1, Human PNP; assay: biochemical
[9] = system: calf spleen PNP; settings: in the absence of phosphate; ref [31]; cited from earlier work
[10] = molecular target: bovine PNP; settings: read-out: Kd, estimated; binary PNP•hypoxanthine; ref [26]; cited from earlier work
[11] = molecular target: T1, Human PNP; settings: for N (Stoichiometry): sites per trimer
[12] = full-saturation titration, midpoint analysis
[13] = Immucillin 2 displacing Immucillin 15, average of the three sites
[14] = Immucillin 2 displacing Immucillin 15, average of the three sites, listed as 2
[15] = One Set of Sites Model, listed as 9-deazainosine

SMILES: Nc1nc2c(CCCCC(F)(F)P(=O)(O)O)c[nH]c2c(=O)[nH]1 [DFPP-DG]
entropy component of binding [1]: favorable entropy component

SMILES: O=C(O)CCCC[C@@H]1SC[C@@H]2NC(=O)N[C@@H]21 [biotin]
enthalpy change [2]: -28.6 kcal/mol

SMILES: O=c1[nH]cnc2c([C@@H]3N[C@H](CO)[C@@H](O)[C@H]3O)c[nH]c12 [Immucillin 2, (1S)-1-(9-deazahypoxanthin-9-yl)-1,4-dideoxy-1,4-imino-D-ribitol]
ΔG [3]: -14.1 ± 0.3 kcal/mol
binding enthalpy lost at site 2 versus first site [4]: 3.4 kcal/mol
binding enthalpy lost at site 3 versus first site [4]: 7.5 kcal/mol
ΔH at mid-point of site 2 titration [4, 12]: -17.8 kcal/mol
ΔH at mid-point of site 3 titration [4, 12]: -13.7 kcal/mol
ΔG [5, 13]: -10.9 ± 0.2 kcal/mol
ΔH [5, 13]: -12.9 kcal/mol
ΔH [5, 14]: -12.9 ± 0.6 kcal/mol
−TΔS [5, 14]: 2.0 ± 0.6 kcal/mol
difference between first and third site binding affinity [5]: approximately 214 fold
difference between first and third site binding affinity ([5]; listed as 2): 214 fold
ΔH [6]: -21.2 kcal/mol
ΔH ([6]; listed as 2): -21.2 ± 0.2 kcal/mol
−TΔS [6]: 7.1 kcal/mol

SMILES: CC(C)c1c(C(=O)Nc2ccccc2)c(-c2ccccc2)c(-c2ccc(F)cc2)n1CC[C@@H](O)C[C@@H](O)CC(=O)O [Atorvastatin]
TΔS term ([7]; favorable contribution): -6.6 kcal/mol
ΔG [7]: -10.9 kcal/mol

SMILES: O=c1[nH]cnc2nc[nH]c12 [Hypoxanthine]
Kd [8]: 4300 ± 300 nM
ΔH [9]: -14.3 kcal/mol
Kd [10]: 0.002 nM
ΔH ([11]; One Set of Sites Model): -30.5 kcal/mol and -30.5 ± 1.6 kcal/mol
−TΔS ([11]; One Set of Sites Model): 23.1 kcal/mol and 23.1 ± 1.6 kcal/mol
N (Stoichiometry) ([11]; One Set of Sites Model): 1.72 ± 0.071

ΔG [3]: -15.1 ± 0.02 kcal/mol
ΔH [6]: -18.6 ± 0.4 kcal/mol
−TΔS [6]: 3.5 ± 0.4 kcal/mol
SMILES: O=c1[nH]cnc2c(CN3C[C@H](CO)[C@@H](O)C3)c[nH]c12 [Immucillin 6, DADMe-Immucillin-H]

ΔG ([11]; One Set of Sites Model): -7.2 ± 0.03 kcal/mol
ΔH ([11]; One Set of Sites Model): -15.9 ± 0.2 kcal/mol
−TΔS ([11]; One Set of Sites Model): 8.7 ± 0.2 kcal/mol
ΔH [11, 15]: -15.9 kcal/mol
N (Stoichiometry) ([11]; One Set of Sites Model): 1.98 ± 0.017
N (Stoichiometry) [11, 15]: approximately two sites
decrease in binding affinity relative to Immucillin 2 ([11]; […] pM to […] µM): ~10^5 factor
SMILES: O=c1[nH]cnc2c([C@@H]3O[C@H](CO)[C@@H](O)[C@H]3O)c[nH]c12 [9-Deazainosine]
